The text below walks through data of PMC4907692, “Engineering vanilloid-sensitivity into the rat TRPV2 channel” (eLife, 2016).

What all share (type): cell-based
Experiment [1] has as its target T1, TRPV1 S512F (Rattus norvegicus, UniProt O35433, S512F).
T1 construct: expressed in transfected cells; host or cells: Xenopus oocytes (cRNA injection)
Description: Two-electrode voltage-clamp in Xenopus oocytes, TRPV1 S512F. The following applies: 100 nM RTx. The source says: (§1) To further investigate the putative vanilloid binding pocket in TRPV1, we inspected the cryo-EM structure of TRPV1, looking for residues that are located nearby to the putative RTx density (Figure 1B; regions/residues highlighted in yellow) and that differ between TRPV1 and TRPV2 channels (Figure 3—figure supplement 1; regions highlighted in magenta). […] To quantify the contribution of each of these residues to TRPV1 channel activation by RTx under our experimental conditions, we mutated each to the corresponding residue in TRPV2. We then expressed each construct in oocytes and used the two electrode voltage-clamp technique to study activation by RTx and by the non-specific TRPV channel activator 2-APB. We recorded time courses for channel activation by each agonist while stepping the membrane potential from −60 to +60 mV every 3 s from a holding potential of 0 mV using an external recording solution containing 100 mM KCl (internal K^+ concentration in a healthy oocyte is 100 mM) (Figure 3A, left). We also recorded current-voltage (I-V) relations by stepping over a wider range of voltages in the absence and presence of activators, or in the presence of ruthenium red (RR), a non-specific inhibitor of TRP channels (Figure 3A, right). […]
Background: Two-electrode voltage clamp is typically applied to oocytes expressing channels or transporters.

Experiment [2] deals with T2, TRPV2 F472S/L507M (Rattus norvegicus, UniProt Q9WUD2, F472S/L507M).
T2 construct: expressed in transfected cells; host or cells: Xenopus oocytes (cRNA injection)
Description: Two-electrode voltage-clamp in Xenopus oocytes, TRPV2 F472S/L507M. The following applies: 100 nM RTx.
Source text: as §1

Experiment [3] has as its target T3, TRPV1 S512F/T550L (Rattus norvegicus, UniProt O35433, S512F/T550L).
T3 construct: expressed in transfected cells; host or cells: Xenopus oocytes (cRNA injection)
Description: Two-electrode voltage-clamp in Xenopus oocytes, TRPV1 S512F/T550L. The following applies: 100 nM RTx.
Source text: as §1

Experiment [4] concerns the target T4, TRPV1 QM (S512F, M547L, T550L, E570Q) (Rattus norvegicus, UniProt O35433, E570Q/M547L/S512F/T550L).
T4 construct: expressed in transfected cells; host or cells: Xenopus oocytes (cRNA injection)
Description: Two-electrode voltage-clamp in Xenopus oocytes, TRPV1 QM. The following applies: 100 nM RTx.
Source text: as §1

The target of experiment [5] is T5, TRPV2 F472S/Q530E (Rattus norvegicus, UniProt Q9WUD2, F472S/Q530E).
T5 construct: expressed in transfected cells; host or cells: Xenopus oocytes (cRNA injection)
Description: Two-electrode voltage-clamp in Xenopus oocytes, TRPV2 F472S/Q530E. The following applies: 100 nM RTx.

For experiment [6], the target named is T6, TRPV2 triple mutant that retained F472 (Rattus norvegicus, UniProt Q9WUD2, L507M/L510T/Q530E).
T6 construct: expressed in transfected cells; host or cells: Xenopus oocytes (cRNA injection)
Description: Two-electrode voltage-clamp in Xenopus oocytes, TRPV2 triple mutant retaining F472. The following applies: 100 nM RTx, +60 mV, normalized to 4 mM 2-APB.
Source text: as §1

Experiment [7] deals with T7, TRPV2 QM (Rattus norvegicus, UniProt Q9WUD2, F472S/L507M/L510T/Q530E).
T7 construct: expressed in transfected cells; host or cells: Xenopus oocytes (cRNA injection)
T7 sequence (Q9WUD2 1-761 F472S/L507M/L510T/Q530E): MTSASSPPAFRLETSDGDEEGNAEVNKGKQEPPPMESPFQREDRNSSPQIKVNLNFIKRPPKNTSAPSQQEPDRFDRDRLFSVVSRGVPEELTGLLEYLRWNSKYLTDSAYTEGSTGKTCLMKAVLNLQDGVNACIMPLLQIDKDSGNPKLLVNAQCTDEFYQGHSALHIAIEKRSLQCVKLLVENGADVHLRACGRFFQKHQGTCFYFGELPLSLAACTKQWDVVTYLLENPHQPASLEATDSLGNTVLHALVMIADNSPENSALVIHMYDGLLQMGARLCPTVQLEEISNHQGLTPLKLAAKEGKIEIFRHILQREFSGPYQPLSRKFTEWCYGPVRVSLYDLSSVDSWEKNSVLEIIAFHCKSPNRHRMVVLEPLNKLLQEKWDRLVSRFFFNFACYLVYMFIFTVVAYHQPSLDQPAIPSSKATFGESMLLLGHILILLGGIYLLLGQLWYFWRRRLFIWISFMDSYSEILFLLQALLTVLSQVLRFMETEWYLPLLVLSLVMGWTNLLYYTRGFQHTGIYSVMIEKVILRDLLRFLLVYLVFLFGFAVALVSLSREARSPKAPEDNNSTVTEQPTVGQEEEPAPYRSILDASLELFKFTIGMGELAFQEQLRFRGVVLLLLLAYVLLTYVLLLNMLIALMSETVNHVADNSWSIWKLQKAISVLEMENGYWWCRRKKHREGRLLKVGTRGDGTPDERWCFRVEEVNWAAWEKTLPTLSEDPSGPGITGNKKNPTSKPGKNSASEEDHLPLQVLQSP
Description: Single channel inside-out patch recording of TRPV2 QM in HEK293 cells. The following applies: 100 nM RTx, patch containing a single channel, recording of approximately 8 min.

The target in experiment [8] is T8, TRPV1 S512F/E570Q (Rattus norvegicus, UniProt O35433, E570Q/S512F).
T8 construct: expressed in transfected cells; host or cells: Xenopus oocytes (cRNA injection)
Description: Two-electrode voltage-clamp in Xenopus oocytes, TRPV1 S512F/E570Q. The following applies: 100 nM RTx.
Source text: as §1

T1 sequence (O35433 whole entry S512F): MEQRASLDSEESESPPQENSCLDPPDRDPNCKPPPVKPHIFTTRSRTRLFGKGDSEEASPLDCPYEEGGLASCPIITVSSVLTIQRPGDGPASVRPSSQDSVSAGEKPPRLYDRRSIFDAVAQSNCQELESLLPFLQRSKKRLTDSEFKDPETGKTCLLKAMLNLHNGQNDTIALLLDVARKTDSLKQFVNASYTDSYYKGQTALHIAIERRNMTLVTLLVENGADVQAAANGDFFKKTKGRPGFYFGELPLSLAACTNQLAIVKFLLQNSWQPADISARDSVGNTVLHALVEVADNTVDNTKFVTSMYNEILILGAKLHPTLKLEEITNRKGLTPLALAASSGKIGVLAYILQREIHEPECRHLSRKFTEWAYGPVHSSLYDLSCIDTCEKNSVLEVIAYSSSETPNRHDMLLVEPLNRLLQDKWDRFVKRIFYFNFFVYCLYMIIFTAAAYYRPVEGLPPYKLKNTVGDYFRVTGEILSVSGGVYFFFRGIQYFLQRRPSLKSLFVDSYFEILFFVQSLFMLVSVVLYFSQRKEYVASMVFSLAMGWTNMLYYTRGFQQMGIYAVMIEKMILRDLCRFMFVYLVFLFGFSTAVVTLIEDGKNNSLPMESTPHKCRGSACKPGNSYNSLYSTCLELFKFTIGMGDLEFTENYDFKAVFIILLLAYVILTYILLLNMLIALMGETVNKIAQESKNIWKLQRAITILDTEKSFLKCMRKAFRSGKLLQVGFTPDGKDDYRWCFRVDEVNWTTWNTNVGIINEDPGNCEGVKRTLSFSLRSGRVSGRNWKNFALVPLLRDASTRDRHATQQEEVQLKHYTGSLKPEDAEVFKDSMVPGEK
T5 sequence (Q9WUD2 whole entry F472S/Q530E): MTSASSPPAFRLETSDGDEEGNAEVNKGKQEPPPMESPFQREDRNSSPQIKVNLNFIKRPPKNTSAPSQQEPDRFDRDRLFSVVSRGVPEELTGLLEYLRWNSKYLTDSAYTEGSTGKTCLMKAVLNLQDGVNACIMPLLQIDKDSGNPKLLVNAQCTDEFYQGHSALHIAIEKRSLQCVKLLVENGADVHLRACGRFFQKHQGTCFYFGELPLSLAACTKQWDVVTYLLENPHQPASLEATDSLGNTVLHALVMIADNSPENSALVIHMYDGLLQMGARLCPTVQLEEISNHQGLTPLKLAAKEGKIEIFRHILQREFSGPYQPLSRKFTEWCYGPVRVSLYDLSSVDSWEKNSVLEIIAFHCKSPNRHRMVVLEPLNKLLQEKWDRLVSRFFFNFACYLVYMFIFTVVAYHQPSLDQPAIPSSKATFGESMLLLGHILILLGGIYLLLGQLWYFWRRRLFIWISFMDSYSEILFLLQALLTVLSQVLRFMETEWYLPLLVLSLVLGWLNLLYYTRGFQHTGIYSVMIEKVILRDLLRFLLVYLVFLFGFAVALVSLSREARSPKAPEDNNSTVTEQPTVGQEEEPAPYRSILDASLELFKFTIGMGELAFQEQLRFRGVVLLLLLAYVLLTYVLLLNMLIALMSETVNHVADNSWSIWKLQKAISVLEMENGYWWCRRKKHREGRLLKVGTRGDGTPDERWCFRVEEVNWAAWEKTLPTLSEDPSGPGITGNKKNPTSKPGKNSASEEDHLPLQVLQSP
T2 sequence (Q9WUD2 whole entry F472S/L507M): as the sequence (Q9WUD2 whole entry F472S/Q530E) above, with L507M, E530Q counted along it
T6 sequence (Q9WUD2 whole entry L507M/L510T/Q530E): as the sequence (Q9WUD2 whole entry F472S/Q530E) above, with S472F, L507M, L510T counted along it
T8 sequence (O35433 whole entry S512F/E570Q): as the sequence (O35433 whole entry S512F) above, with E570Q counted along it
T3 sequence (O35433 whole entry S512F/T550L): as the sequence (O35433 whole entry S512F) above, with T550L counted along it
T4 sequence (O35433 whole entry S512F/M547L/T550L/E570Q): as the sequence (O35433 whole entry S512F) above, with M547L, T550L, E570Q counted along it

For `C=C(C)[C@]12C[C@@H](C)[C@@]34O[C@](Cc5ccccc5)(O[C@@H]1[C@@H]3C=C(COC(=O)Cc1ccc(O)c(OC)c1)C[C@]1(O)C(=O)C(C)=C[C@@H]41)O2` [RTx, resiniferatoxin], the “dissociation of RTx after removal from the recording chamber” value in experiment [1] is listed as “could readily see dissociation of RTx”. The “channel activation by RTx” value in experiment [2] is given as “sensitive to RTx”; in experiment [3], “lost sensitivity”; in experiment [4], “completely lost sensitivity”; in experiment [5] it was “unresponsive”; in experiment [6], “insensitive to RTx”; in experiment [8], “retained RTx sensitivity”. The “open probability (Po)” value in experiment [7] is recorded as about 1.
